Reference: paper PMC12301034, “Design and Synthesis of Boronic Chalcones with Dual Anticancer and Anti-Inflammatory Activity” (Molecules, 2025)
Like-named read-outs stand apart in the source and are kept apart here.

Assays:
[1] = reference compounds for calibration curve; cited from earlier work
HCT116 p53^−/− cells = test: SRB cytotoxicity assay on HCT116 p53-/- cells; type: cell-based, human
Source text: (§1) The SCC-25 (ATCC® CRL-1628™), Detroit-562 (ATCC® CCL-138™), and THP-1 (ATCC® TIB-202™) cells were purchased from Rio de Janeiro Cell Bank (Duque de Caxias, Brazil), and NOK-si was kindly provided by Prof. Carlos Rossa from the School of Dentistry—UNESP. All the cells were cultivated according to standard conditions. Human colorectal adenocarcinoma HCT116 cell lines (ATCC® CCL-247™) expressing p53 and its p53-null isogenic derivative (HCT116 p53^−/−) were provided by B. Vogelstein (The Johns Hopkins Kimmel Cancer Center, Baltimore, MD, USA).
(§2) HCT p53^+/+ and HCT p53^−/− cell lines were seeded in 96-well plates, with a concentration of 5000 cells/well, and allowed to adhere overnight. Afterwards, they were treated with serial dilutions of the compounds for an additional 48 h (compounds were prepared at 30 mM, in DMSO, and tested with a starting concentration of 50μM and 15 μM). Cells passed then through a series of essential steps (fixation with 10% trichloroacetic acid, for 1 h at 4 °C; staining with 0.4% sulforhodamine B (SRB); wash with 1% acetic acid; and solubilization with 10 mM Tris-Base); subsequently, absorbance was measured at 510 nm in a microplate reader (Biotek Instruments Inc., Synergy, MX, USA). IC50 values were determined using GraphPad Prism software, Version 7.0 (La Jolla, CA, USA).

[2] = Partition coefficient (Log P), OECD 117 HPLC method
TNF = test: Anti-inflammatory assay, TNF in LPS-stimulated THP-1 cells (CBA); type: cell-based, human; settings: 2 and 4 µg/mL, 24 h
Method: For this assay, THP-1 (BCRJ cód. 0234) cells were cultured in Roswell Park Memorial Institute (RPMI-1640, Sigma-Aldrich; Saint Louis, MO, USA) media supplemented with 2 mM L-glutamine, 1 mM sodium pyruvate, 1.50 g/L of sodium bicarbonate, and 10% fetal bovine serum. For obtaining Macrophage-like cells, 250,000 cells per well were plated in a 24-well cell culture plate. A total of 20 ng/mL of Forbol 12-miristato-13-acetato (PMA) was added to each well, and the cells were incubated for 48 h at 37 °C with 5% CO2. After the 48 h, the wells were washed with 1X PBS, and fresh RPMI-1640 media was added. The cells were then incubated for 24 h at 37 °C and 5% CO2. For the cell’s stimulations, after the 24 h, the well was washed with PBS and fresh RPMI1640 media without fetal bovine serum added. For the positive controls of the assay, 3 wells were stimulated with LPS (1 ng/µL) diluted in the same volume and media used for the drugs stimulation. Two different concentrations (2 and 4 µg/mL) were evaluated for each molecule, which were determined to be non-cytotoxic through a cell viability assay. After a 24 h period, the supernatant was removed and used in the cytokine quantification assay. A kit for inflammatory cytokines, BD® Cytometric Bead Array CBA Human Inflammatory, was employed for this assay, containing the following human cytokines: IL-8, IL-1β, IL-6, and TNF. Standard cytokines were prepared in 9 different concentrations: 1:256, 1:128, 1:64, 1:32, 1:16, 1:8, 1:4, 1:2, and 1:1 (“top standard”). Analysis was performed using a Flow Cytometer FACS Aria Fusion BD (Bioscence, Houston, TX, USA). Data analysis was conducted using Prism software (version 10.4.1).

HCT116 p53^+/+ cells = test: SRB cytotoxicity assay on HCT116 p53+/+ cells; type: cell-based, human
Source text: as §1, §2

NOK-si cells = test: MTT cytotoxicity assay on NOK-si normal oral keratinocytes; type: cell-based; settings: 24 h incubation; for CC50: Keratinocyte, read-out: NOK-si IC50
Source text: as §1
(§3) Cells (NOK-si, SCC-25, and Detroit-562) were grown in a DMEM medium (Dulbecco’s Modified Eagle Medium), supplemented according to the needs of each lineage, as recommended by its cell banks, with 2 mM L-glutamine, 10% or 20% fetal bovine serum (FBS), 1% antibiotic–antimycotic solution (5 mg/mL penicillin, 5 mg/mL streptomycin, and 10 mg/mL neomycin), 4.5 g/L of glucose, and 3.7 g/L of sodium bicarbonate (NaHCO3). All cell lines were cultured in flasks at 37 °C in 5% carbon dioxide (CO2) and 95% of relative humidity. The assays were conducted between the third- and the seventh-cell passage, with sub-cultures every 3–4 days to maintain exponential growth. The cell viability was checked using the trypan blue dye exclusion assay for all experiments, where over 95% of the cells were viable at the beginning of the tests. NOK-si, SCC-25, and Detroit-562 were initially thawed and cultured in 25 cm^2 cell culture flasks. Cell growth was monitored using a microscope, and the culture medium was changed periodically. Upon reaching confluency, cell dissociation was achieved by adding 5 mL of trypsin (Sigma-Aldrich, St Louis, MO, USA) and incubating the bottles in a CO2 incubator for 10 min. Subsequently, the cells were transferred to 15 mL Falcon tubes and centrifuged at 2000 rpm for 10 min. Cell counting was performed using a Countess II FL automated cell counter (ThermoFischer, Waltham, MA, USA). The cells were seeded at a density of 30,000 cells per well in 96-well plates. The plates were then incubated at 37 °C in 5% CO2 for 24 h. Following this, test compounds were incubated for another 24 h at 10 different concentrations: 50, 25, 12.5, 6.25, 3.12, 1.56, 0.78, 0.39, 0.19, and 0.097 µg/mL. After the specified time, MTT reagent (3 mg/mL) (Sigma-Aldrich, St Louis, MO, USA) dissolved in phenol-free RPMI 1640 was added and incubated for 4 h. The formed MTT crystals were solubilized using 2-propanol P.A. (Sigma-Aldrich, St Louis, MO, USA) with agitation. Absorbance was read at 562 nm using an EZ Read 400 microplate reader (Biochrom, Cambridge, UK) and ADAP 2.0 Biochrom software (version 2.0). IC50 values and graphs were calculated using Excel and Prism software (version 10.4.1). The MTT assay results were evaluated for normality using the Shapiro–Wilk test, followed by one-way ANOVA with Tukey’s post hoc test at a significance level of 5%.

IL-6 = test: Anti-inflammatory assay, IL-6 in LPS-stimulated THP-1 cells (CBA); type: cell-based, human; settings: 2 and 4 µg/mL, 24 h
Method: (§4) For this assay, THP-1 (BCRJ cód. 0234) cells were cultured in Roswell Park Memorial Institute (RPMI-1640, Sigma-Aldrich; Saint Louis, MO, USA) media supplemented with 2 mM L-glutamine, 1 mM sodium pyruvate, 1.50 g/L of sodium bicarbonate, and 10% fetal bovine serum. For obtaining Macrophage-like cells, 250,000 cells per well were plated in a 24-well cell culture plate. A total of 20 ng/mL of Forbol 12-miristato-13-acetato (PMA) was added to each well, and the cells were incubated for 48 h at 37 °C with 5% CO2. After the 48 h, the wells were washed with 1X PBS, and fresh RPMI-1640 media was added. The cells were then incubated for 24 h at 37 °C and 5% CO2. For the cell’s stimulations, after the 24 h, the well was washed with PBS and fresh RPMI1640 media without fetal bovine serum added. For the positive controls of the assay, 3 wells were stimulated with LPS (1 ng/µL) diluted in the same volume and media used for the drugs stimulation. Two different concentrations (2 and 4 µg/mL) were evaluated for each molecule, which were determined to be non-cytotoxic through a cell viability assay. After a 24 h period, the supernatant was removed and used in the cytokine quantification assay. A kit for inflammatory cytokines, BD® Cytometric Bead Array CBA Human Inflammatory, was employed for this assay, containing the following human cytokines: IL-8, IL-1β, IL-6, and TNF. […]

SCC-25 cells = test: MTT cytotoxicity assay on SCC-25 cells; type: cell-based, human; settings: for IC50: MTT, 24 h incubation, mean SEM of three experiments; for SI = IC50 NOK-si/IC50 SCC-25: selectivity index
Source text: as §1, §3

IL-1β = test: Anti-inflammatory assay, IL-1β in LPS-stimulated THP-1 cells (CBA); type: cell-based, human; settings: 2 and 4 µg/mL, 24 h
Method: as §4

Detroit-562 cells = test: MTT cytotoxicity assay on Detroit-562 cells; type: cell-based; settings: Homo sapiens; MTT, 24 h incubation, Detroit-562 metastatic pharyngeal cancer model
Source text: as §1
Cells (NOK-si, SCC-25, and Detroit-562) were grown in a DMEM medium (Dulbecco’s Modified Eagle Medium), supplemented according to the needs of each lineage, as recommended by its cell banks, with 2 mM L-glutamine, 10% or 20% fetal bovine serum (FBS), 1% antibiotic–antimycotic solution (5 mg/mL penicillin, 5 mg/mL streptomycin, and 10 mg/mL neomycin), 4.5 g/L of glucose, and 3.7 g/L of sodium bicarbonate (NaHCO3). All cell lines were cultured in flasks at 37 °C in 5% carbon dioxide (CO2) and 95% of relative humidity. The assays were conducted between the third- and the seventh-cell passage, with sub-cultures every 3–4 days to maintain exponential growth. The cell viability was checked using the trypan blue dye exclusion assay for all experiments, where over 95% of the cells were viable at the beginning of the tests. NOK-si, SCC-25, and Detroit-562 were initially thawed and cultured in 25 cm^2 cell culture flasks. Cell growth was monitored using a microscope, and the culture medium was changed periodically. […] Absorbance was read at 562 nm using an EZ Read 400 microplate reader (Biochrom, Cambridge, UK) and ADAP 2.0 Biochrom software (version 2.0). IC50 values and graphs were calculated using Excel and Prism software (version 10.4.1). The MTT assay results were evaluated for normality using the Shapiro–Wilk test, followed by one-way ANOVA with Tukey’s post hoc test at a significance level of 5%.

[3] = Homo sapiens, HCT-116, 48 h of treatment
[4] = 48 h of treatment, read-out: HCT p53^−/− IC50
[5] = 48 h of treatment, read-out: HCT p53^+/+ IC50

Row | Molecule | chromatographic logP [2] | CC50 (NOK-si cells) [µM] | IC50 (SCC-25 cells; Homo sapiens, SCC-25) [µM] | SI = IC50 NOK-si/IC50 SCC-25 (SCC-25 cells) | also measured
1 | Clc1ccc(C(c2ccc(Cl)cc2)C(Cl)(Cl)Cl)cc1 [DDT] | – | – | – | – | log P of reference compounds [1]: 6.5
2 | COc1cccc(C(=O)/C=C/c2ccccc2)c1 [Compound 1] | 3.73 | 101.5 ± 0.17 | 24.9 ± 1.09 | 4.08 | IC50 (HCT116 p53^−/− cells; [3]): 7.56 ± 0.4 µM; reduction of TNF levels (TNF): lower effectiveness; IC50 (HCT116 p53^+/+ cells; [3]): 6.83 ± 1.15 µM; reduction of IL-6 levels (IL-6): lower effectiveness; reduction of IL-1β levels (IL-1β): comparable efficacy in reducing cytokine levels relative to LPS-stimulated cells
3 | COc1ccc(C(=O)/C=C/c2cccc(B(O)O)c2)cc1OC [Compound 6, (E)-(3-(3-(3,4-dimethoxyphenyl)-3-oxoprop-1-en-1-yl)phenyl)boronic acid] | 2.3 | 20.8 ± 2.17 | 27.2 ± 3.84 | 0.77 | –
4 | O=c1[nH]cc(F)c(=O)[nH]1 [Compound 5-FU, 5-fluorouracil, reference compound] | – | 1800 ± 27.7 | 1800 | lacked selectivity | –
5 | O=C(/C=C/c1cccc(B(O)O)c1)c1cccc(O)c1 [Compound 4, (E)-(3-(3-(3-hydroxyphenyl)-3-oxoprop-1-en-1-yl)phenyl)boronic acid] | 1.81 | 18.5 ± 4.43 | 9.8 ± 1 | 1.88 | IC50 (HCT116 p53^−/− cells; [3]): 2.16 ± 0.25 µM; IC50 (HCT116 p53^+/+ cells; [3]): 2.33 ± 0.2 µM; IC50 (Detroit-562 cells): 31.6 ± 3.13 µM
6 | O=C(/C=C/c1cccc(B(O)O)c1)c1ccccc1 [Compound 2, (E)-(3-(3-oxo-3-phenylprop-1-en-1-yl)phenyl)boronic acid] | 2.68 | 133 ± 3.25 | 134 ± 12.3 | 1.00 | IC50 (HCT116 p53^−/− cells; [3]): 3.63 ± 0.47 µM; IC50 (HCT116 p53^+/+ cells; [3]): 4.4 ± 0.53 µM
7 | Nc1ccccc1 [aniline] | – | – | – | – | log P of reference compounds [1]: 0.9
8 | O=C(/C=C/c1ccc(B(O)O)cc1)c1cccc(O)c1 [Compound 10, (E)-(4-(3-(3-hydroxyphenyl)-3-oxoprop-1-en-1-yl)phenyl)boronic acid] | 1.64 | 25.7 ± 11.6 | 43.8 ± 4.43 | 0.59 | –
9 | (E)-(3-(3-(2-bromo-4-methoxyphenyl)-3-oxoprop-1-en-1-yl)phenyl)boronic acid [Compound 8] | – | – | – | 0.82 | IC50 (HCT116 p53^−/− cells; [4]): 1.7 ± 0.72 µM; IC50 (HCT116 p53^+/+ cells; [5]): 2.06 ± 0.45 µM; NOK-si IC50 (NOK-si cells): 27.4 ± 3.05 µM; IC50 (SCC-25 cells): 33.4 ± 1.25 µM
10 | COc1cccc(C(=O)/C=C/c2ccc(B(O)O)cc2)c1 [Compound 11, (E)-(4-(3-(3-methoxyphenyl)-3-oxoprop-1-en-1-yl)phenyl)boronic acid] | 2.81 | 96.2 ± 21.3 | 65.9 ± 11 | 1.46 | IC50 (HCT116 p53^−/− cells; [3]): 3.8 ± 0.26 µM; IC50 (HCT116 p53^+/+ cells; [3]): 3.96 ± 0.55 µM
11 | Nc1cccc(C(=O)/C=C/c2cccc(B(O)O)c2)c1 [Compound 3, (E)-(3-(3-(3-aminophenyl)-3-oxoprop-1-en-1-yl)phenyl)boronic acid] | 1.49 | 36.2 ± 10.7 | 45.2 ± 13.7 | – | –
12 | Nc1cccc(C(=O)/C=C/c2ccc(B(O)O)cc2)c1 [Compound 9, (E)-(4-(3-(3-aminophenyl)-3-oxoprop-1-en-1-yl)phenyl)boronic acid] | 1.18 | 74.6 ± 15 | 108 ± 22.5 | 0.69 | –
13 | (E)-(3-(3-(2-bromo-4-hydroxyphenyl)-3-oxoprop-1-en-1-yl)phenyl)boronic acid [Compound 7] | – | – | – | 1.31 | IC50 (HCT116 p53^−/− cells; [4]): 4.2 ± 0.35 µM; IC50 (HCT116 p53^+/+ cells; [5]): 3.63 ± 0.4 µM; NOK-si IC50 (NOK-si cells): 54.0 ± 10.98 µM; IC50 (SCC-25 cells): 41.1 ± 4.62 µM
14 | COc1ccc(C(=O)/C=C/c2ccc(B(O)O)cc2)cc1OC [Compound 12, (E)-(4-(3-(3,4-dimethoxyphenyl)-3-oxoprop-1-en-1-yl)phenyl)boronic acid] | 2.16 | 29.5 ± 6.08 | 38.4 ± 1.63 | 0.77 | –
